# Assays:
# Matrilysin = molecular target: T1, Matrilysin (Homo sapiens, UniProt P09237); test: Inhibition of recombinant human MMP7
# T1 sequence (P09237 whole entry): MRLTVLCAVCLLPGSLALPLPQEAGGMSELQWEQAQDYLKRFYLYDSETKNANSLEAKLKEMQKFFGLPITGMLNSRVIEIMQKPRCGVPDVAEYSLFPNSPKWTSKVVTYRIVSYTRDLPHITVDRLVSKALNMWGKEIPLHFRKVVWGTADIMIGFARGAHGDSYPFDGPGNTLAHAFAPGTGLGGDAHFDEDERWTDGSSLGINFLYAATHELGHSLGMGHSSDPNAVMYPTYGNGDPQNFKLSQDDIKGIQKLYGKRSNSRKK
# [1] = molecular target: T2, A disintegrin and metalloproteinase with thrombospondin motifs 5 (Homo sapiens, UniProt Q9UNA0); test: Inhibition of recombinant human ADAMTS-5
# T2 sequence (Q9UNA0 whole entry): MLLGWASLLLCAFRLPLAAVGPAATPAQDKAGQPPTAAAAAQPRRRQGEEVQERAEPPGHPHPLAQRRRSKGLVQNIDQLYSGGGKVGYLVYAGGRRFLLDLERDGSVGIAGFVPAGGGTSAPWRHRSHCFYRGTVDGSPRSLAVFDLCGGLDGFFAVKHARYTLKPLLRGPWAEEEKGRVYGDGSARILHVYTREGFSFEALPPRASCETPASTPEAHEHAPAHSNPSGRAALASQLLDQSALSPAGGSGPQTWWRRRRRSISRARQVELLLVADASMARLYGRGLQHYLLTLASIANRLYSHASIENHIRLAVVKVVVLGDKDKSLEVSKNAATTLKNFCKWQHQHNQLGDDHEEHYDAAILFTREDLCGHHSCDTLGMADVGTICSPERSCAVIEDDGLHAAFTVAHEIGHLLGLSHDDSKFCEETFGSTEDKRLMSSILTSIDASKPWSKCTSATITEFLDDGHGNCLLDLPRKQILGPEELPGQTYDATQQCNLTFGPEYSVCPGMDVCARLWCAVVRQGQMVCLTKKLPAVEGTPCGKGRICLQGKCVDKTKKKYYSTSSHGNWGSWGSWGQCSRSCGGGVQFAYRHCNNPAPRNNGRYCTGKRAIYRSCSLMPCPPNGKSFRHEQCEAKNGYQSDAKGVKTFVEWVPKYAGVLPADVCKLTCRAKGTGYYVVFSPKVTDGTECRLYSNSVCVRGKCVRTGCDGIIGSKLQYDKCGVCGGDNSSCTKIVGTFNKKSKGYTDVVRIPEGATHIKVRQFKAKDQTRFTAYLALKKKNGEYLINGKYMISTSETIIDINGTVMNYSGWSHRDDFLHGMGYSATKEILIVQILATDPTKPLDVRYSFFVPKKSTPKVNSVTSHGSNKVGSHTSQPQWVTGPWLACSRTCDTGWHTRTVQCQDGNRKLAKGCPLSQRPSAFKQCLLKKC
# [2] = molecular target: 72 kDa type IV collagenase (Homo sapiens, UniProt P08253); test: Inhibition of recombinant human MMP2
# Chain of 72 kDa type IV collagenase (P08253 whole entry): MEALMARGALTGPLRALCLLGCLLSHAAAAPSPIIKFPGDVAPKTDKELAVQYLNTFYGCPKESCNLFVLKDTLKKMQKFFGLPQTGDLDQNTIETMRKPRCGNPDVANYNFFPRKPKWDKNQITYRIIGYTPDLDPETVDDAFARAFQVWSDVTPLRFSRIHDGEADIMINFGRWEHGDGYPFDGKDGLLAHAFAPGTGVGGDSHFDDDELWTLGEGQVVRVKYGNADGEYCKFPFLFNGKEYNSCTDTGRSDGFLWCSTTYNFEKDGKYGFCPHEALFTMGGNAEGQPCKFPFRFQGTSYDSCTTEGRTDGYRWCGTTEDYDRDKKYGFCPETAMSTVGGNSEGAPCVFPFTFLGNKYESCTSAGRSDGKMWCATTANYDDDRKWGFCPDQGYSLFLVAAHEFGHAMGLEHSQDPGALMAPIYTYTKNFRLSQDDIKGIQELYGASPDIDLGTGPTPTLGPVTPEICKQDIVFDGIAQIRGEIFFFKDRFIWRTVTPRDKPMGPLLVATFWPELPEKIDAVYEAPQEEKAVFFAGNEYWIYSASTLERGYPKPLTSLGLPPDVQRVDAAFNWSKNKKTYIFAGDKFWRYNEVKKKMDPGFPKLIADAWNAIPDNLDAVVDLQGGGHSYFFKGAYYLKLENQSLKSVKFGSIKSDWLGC
# Collagenase 3 = Collagenase 3 (Homo sapiens, UniProt P45452); test: Inhibition of recombinant human MMP13
# [3] = molecular target: T3, A disintegrin and metalloproteinase with thrombospondin motifs 4 (Homo sapiens, UniProt O75173); test: Inhibition of recombinant human ADAMTS-4
# T3 sequence (O75173 whole entry): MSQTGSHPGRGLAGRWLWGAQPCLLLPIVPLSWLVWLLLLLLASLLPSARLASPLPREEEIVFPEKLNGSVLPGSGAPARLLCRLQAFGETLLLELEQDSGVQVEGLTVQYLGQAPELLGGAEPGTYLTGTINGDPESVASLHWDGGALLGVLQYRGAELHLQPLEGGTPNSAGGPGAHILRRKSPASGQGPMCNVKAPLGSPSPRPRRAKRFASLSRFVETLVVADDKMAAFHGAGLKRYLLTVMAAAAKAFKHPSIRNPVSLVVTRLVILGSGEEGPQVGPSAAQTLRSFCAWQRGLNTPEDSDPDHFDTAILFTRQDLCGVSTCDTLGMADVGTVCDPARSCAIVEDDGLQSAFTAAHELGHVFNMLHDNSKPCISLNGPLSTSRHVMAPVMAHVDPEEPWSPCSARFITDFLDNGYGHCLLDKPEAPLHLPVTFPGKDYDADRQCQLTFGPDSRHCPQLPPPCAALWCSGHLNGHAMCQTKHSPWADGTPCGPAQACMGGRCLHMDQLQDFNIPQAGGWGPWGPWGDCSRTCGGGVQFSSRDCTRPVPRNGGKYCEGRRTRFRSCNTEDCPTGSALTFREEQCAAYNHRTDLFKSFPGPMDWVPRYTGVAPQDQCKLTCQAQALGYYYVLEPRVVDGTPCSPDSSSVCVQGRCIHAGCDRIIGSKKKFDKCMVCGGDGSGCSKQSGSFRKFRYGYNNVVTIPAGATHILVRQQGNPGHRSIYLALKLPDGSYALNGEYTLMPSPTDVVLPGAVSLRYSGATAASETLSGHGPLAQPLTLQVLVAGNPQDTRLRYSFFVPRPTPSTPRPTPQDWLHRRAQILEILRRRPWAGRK
compound,measurement,setting,value
O=c1cc(-c2ccc(O)c(O)c2)oc2cc(O)cc(O)c12 [LUTEOLIN],IC50,Matrilysin,68.2 µM
same,IC50,[1],12.2 µM
same,IC50,[2],40.9 µM
same,IC50,Collagenase 3,18.3 µM
same,IC50,[3],9.8 µM
